Test results published in ChEMBL document CHEMBL2346614, “Discovery of thienopyrimidine-based inhibitors of the human farnesyl pyrophosphate synthase--parallel synthesis of analogs via a trimethylsilyl ylidene intermediate” (Bioorg Med Chem, 2013).

Columns and labels:
[1] = biological target: T1, Farnesyl pyrophosphate synthase (Homo sapiens, UniProt P14324); assay: Inhibition of human FPPS
T1 sequence (P14324 whole entry): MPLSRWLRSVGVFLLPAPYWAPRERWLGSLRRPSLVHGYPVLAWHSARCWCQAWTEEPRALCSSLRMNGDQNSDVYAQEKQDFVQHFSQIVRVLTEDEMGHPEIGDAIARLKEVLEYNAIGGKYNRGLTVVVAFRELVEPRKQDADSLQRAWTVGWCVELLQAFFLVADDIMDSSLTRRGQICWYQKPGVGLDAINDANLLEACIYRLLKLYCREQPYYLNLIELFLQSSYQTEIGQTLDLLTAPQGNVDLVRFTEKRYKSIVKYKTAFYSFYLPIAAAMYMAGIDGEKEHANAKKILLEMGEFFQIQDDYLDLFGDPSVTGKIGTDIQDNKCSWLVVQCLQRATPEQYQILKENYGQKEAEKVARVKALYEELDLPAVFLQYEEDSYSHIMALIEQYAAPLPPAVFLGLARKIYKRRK

[2] = biological target: T2, Farnesyl pyrophosphate synthase (Homo sapiens) (UniProt P14324); assay: Inhibition of human recombinant N-terminal His6-tagged FPPS transfected in Escherichia coli BL21 (DE3) cells using GPP and [3H]-IPP as substrate at 10 uM incubated for 10 mins prior to substrate addition measured after 20 mins by liquid scintillation counting analysis; assay type: biochemical
T2 sequence (whole entry): T1 sequence (P14324 whole entry)

[3] = biological target: T1, Farnesyl pyrophosphate synthase; assay: Inhibition of human recombinant N-terminal His6-tagged FPPS transfected in Escherichia coli BL21 (DE3) cells using GPP and [3H]-IPP as substrate incubated for 10 mins prior to substrate addition measured after 20 mins by liquid scintillation counting analysis

SMILES | inhibition [2] [%] | also measured
CC(C)=CCC/C(C)=C/CC(C/C=C(\C)CCC=C(C)C)(P(=O)(O)O)P(=O)(O)O [DIGERANYL BISPHOSPHONATE] |  | IC50 [1]: > 10000 nM
O=P(O)(O)C(Nc1ncnc2sccc12)P(=O)(O)O | 75 | 
O=P(O)(O)C(Nc1nc(-c2ccccc2)nc2sccc12)P(=O)(O)O | 75 | 
Cc1ccc(-c2cc3c(NC(P(=O)(O)O)P(=O)(O)O)ncnc3s2)cc1 |  | IC50 [3]: 390 nM
O=P(O)(O)C(Nc1ncnc2scc(-c3ccccc3)c12)P(=O)(O)O | < 20 | 
O=P(O)(O)C(Nc1ncnc2sc(-c3ccccc3)cc12)P(=O)(O)O | 75 | 
O=P(O)(O)C(Nc1ncnc2sc(-c3ccc4ccccc4c3)cc12)P(=O)(O)O |  | IC50 [3]: 250 nM
